Data: US20080196124A1, “Plant Growth Hormone Regulated Transcription Factors and Promoters Thereof” (DONALD DANFORTH PLANT SCIENCE CENTER, priority 2006, published 2008)

How the values were obtained:
[1] = test system: wildtype (Col-0); assay: Lateral root number with exogenous auxin, wildtype; assay type: in vivo, Arabidopsis; conditions: for lateral root number: Col-0, mean ± SE
Experimental: (§1) FIG. 4. Reduced AtMyb77 expression reduces lateral root growth sensitivity to exogenous auxin. (A) atmyb77-1 T-DNA insertion line and wild-type Arabidopsis Col-0 grown on MS plates with no added auxin have the same number and length of lateral roots. (B) atmyb77-1 has more lateral roots than wildtype Col-0 with 100 nM IAA and (C) 80 nM 2, 4-D. (D) Mean lateral root numbers per primary root under control conditions and with 100 nM IAA and 80 nM 2, 4-D (n=100±SE).
(§2) The effects of exogenous auxin on lateral root growth under control conditions were also tested in wild-type and atmyb77-1 plants. Wildtype Col-0 and atmyb77-1 plants had the same number of lateral roots and the same primary root length under control conditions (FIGS. 4A and D; Table I). […] Primary root length was the same between lines for each treatment.

[2] = test system: atmyb77-1 T-DNA insertion line roots; assay: Northern blot of auxin regulated genes in roots, atmyb77-1; assay type: in vivo, Arabidopsis; conditions: 20 μM IAA; 6, 30, 54 h; atmyb77-1 roots
Experimental: (§3) FIG. 6. Northern blots of Arabidopsis wildtype Col-0 and T-DNA insertion line atmyb77-1 roots grown in hydroponic conditions for 7 weeks and treated with 20 μM IAA for 0, 6, 30 and 54 hours. Northern blots were probed with 3′ probes from auxin regulated and related genes. Ribosomal RNA loading control shown at bottom.
(§4) Plants were initially grown in nutrient solutions using a rock wool system (Gibeaut et al. 1997) for six weeks at 22° C. with 8 h daylight at 200 μmol.m-2.s-1. Three weeks after germination, plants were transferred to hydroponic tanks containing nutrient medium (Shin et al. 2005) with aeration. Plants were then exposed to a final concentration of 20 μM of IAA (Sigma-Aldrich, St.Louis, Mo.) in the nutrient solutions. After 6 h, 30 h and 54 h roots were harvested. For probes, cDNA fragments were amplified from Arabidopsis cDNA by PCR using primers for the indicated genes as follows: […]
(§5) The amplified cDNAs were labeled with α-^32P-dCTP (Amersham) and Northern blot analyses were performed as described (Shin et al. 2005).

[3] = test system: atmyb77 T-DNA insertion lines (KO); assay: Lateral root number with exogenous auxin, atmyb77 T-DNA insertion line; assay type: in vivo, Arabidopsis; conditions: mean ± SE
Experimental: as §1, §2

[4] = test system: AtMyb77 promoter::GUS plants; assay: AtMyb77 promoter::GUS reporter expression in roots after auxin; assay type: in vivo, Arabidopsis; conditions: 100 nM IAA, lateral roots, one day
Experimental: To localize GUS activity, plants were stained with 1 mM X-Gluc solution 4 days after germination (DAG) (Vicente-Agullo et al. 2004) and were de-stained (Malamy and Benfey 1997). The pictures were taken using a Nikon SMZ1500 dissecting microscope (Nikon). Plants were transferred 3-DAG to full nutrient (1.75 mM KCl) or to low K plates (10 μM KCl), and then grown for 7 days before staining. For auxin treatment, plants were transferred 6-DAG to full nutrient plates (no auxin), and to plates containing 100 nM of IAA, or 80 nM of 2, 4-D, and then grown for one day before staining. Incubation time was 60 minutes and protein concentration was calculated with the CB-X kit (GenoTech).
Expression of AtMyb77-promoter driven GUS expression was detected in roots (FIG. 3) and leaves of seedlings. In roots the expression was localized to the inner cell layers of the primary root including the stele (FIGS. 3A and B). At the tip of primary roots expression of GUS was also seen in the root cap cells (FIG. 3A). Throughout the root expression was visible in the vascular tissue. An interesting pattern of expression was observed during the development of lateral roots. Initially when the lateral roots emerge, the reporter gene expression was observed above and below the emerging lateral root primordia in the cortical cells (FIG. 3C). […]

[5] = test system: wildtype Col-0 roots; assay: Northern blot of auxin regulated genes in roots, wildtype; assay type: in vivo, Arabidopsis; conditions: 20 μM IAA
Experimental: as §3, §4, §5

[6] = test system: MYBcore element; assay: Gel mobility shift assay, MYBcore; assay type: binding, Arabidopsis; conditions: 100 ng AtMyb77::His, 3x repeat labeled oligo
Experimental: (§6) An AtMyb77 cDNA fragment was amplified by PCR and cloned into the Ndel and SacI sites of the pET28 vector (Novagen, Madison, Wis., USA). The primer set used for the amplification was 5′-[…]-3′ (SEQ ID NO:37) and 5′-[…]-3′ (SEQ ID NO:38). The resulting in-frame fusion was transformed into Escherichia coli strain BL21 (DE3). Overexpression of AtMyb77::His was induced by 0.5 mM isopropyl-β-D-thiogalactoside at 20° C. for 4 h. Bacteria were pelleted after the induction period, suspended in lysis buffer (50 mM NaH2PO4H2O, 300 mM NaCl, 10 mM Imidazole) and subjected to sonication on ice for 1 min. Bacterial lysates were then centrifuged. The His tagged fusion protein was recovered by affinity chromatography on Nickel-NTA (Sigma-Aldrich, St. Louis, Mo., USA) and the purified protein was used for gel mobility shift assays.
(§7) Both strands of the MRE element ([…]; SEQ ID NO:39) (Hoerena et al. 1998), the MYBcore element ([…]; SEQ ID NO:40) (Larsen 2003), mutated MRE (mMRE) element ([…]; SEQ ID NO:41), mutated MYBcore (mMYBcore) element ([…]; SEQ ID NO:42) and GCC box ([…]; SEQ ID NO:43; Fujimotoa et al., 2000) were synthesized and were end-labeled with […] (Amersham, Pittsburgh, Pa., USA) by T4 polynucleotide kinase (New England Biolabs, Beverly, Mass., USA) at 37° C. for 1 h. […]

[7] = test system: mutated MRE (mMRE) element; assay: Gel mobility shift assay, mutated MRE; assay type: binding; conditions: band shift
Experimental: as §6, §7

[8] = test system: mutated MYBcore (mMYBcore) element; assay: Gel mobility shift assay, mutated MYBcore; assay type: binding; conditions: band shift
Experimental: as §6, §7

[9] = test system: GCC box; assay: Gel mobility shift assay, GCC box; assay type: binding; conditions: band shift
Experimental: as §6, §7

[10] = test system: MRE element; assay: Gel mobility shift assay, MRE; assay type: binding, Arabidopsis; conditions: 100 ng AtMyb77::His, 3x repeat labeled oligo
Experimental: as §6, §7

## O=C(O)Cc1c[nH]c2ccccc12 [IAA, indoleacetic acid]
[1]; 100 nM IAA
  lateral root number: 10.05 ± 0.55b
[1]; seedlings treated with 100 nM IAA
  lateral root formation, wildtype compared to atmyb77-1: reduced significantly more in the wildtype
[2]
  induction of auxin regulated genes: greatly attenuated or abolished
[3]; 100 nM IAA
  lateral root number: 13.57 ± 0.38c
[4]
  AtMyb77 promoter driven GUS expression: increase in the expression
[5]; 6, 30, 54 h vs 0 h, wild-type roots
  expression of IAA19, IAA1, IAA28, AUX1, SAUR-AC1, AXR1, ARF7, AtMyb77 and Tir1: Clear induction of expression
[5]; after 54 hours, wildtype roots
  PIN1 expression: not induced

## O=C(O)COc1ccc(Cl)cc1Cl [2,4,-D, 2,4-dichlorophenoxyacetic acid]
[1]; 80 nM 2,4-D
  lateral root number: 7.41 ± 0.20 days
[1]; seedlings treated with 80 nM 2,4-D
  lateral root formation, wildtype compared to atmyb77-1: reduced significantly more in the wildtype
[3]; 80 nM 2,4-D
  lateral root number: 8.80 ± 0.19b

## AtMyb77: HIS tagged AtMyb77 R2R3 Myb transcription factor protein (SEQ ID NO:10) purified from E. coli
[6]
  binding to MYBcore sequence (band shift): bound
[7]
  binding to MRE with single nucleotide change: eliminated the interaction and binding
[8]
  binding to MYBcore with single nucleotide change: eliminated the interaction and binding
[9]
  binding to ethylene binding element (GCC): no interaction
[10]
  binding to MRE sequence (band shift): bound
